Source: PMC6516043, “Functional Analysis of the Chemosensory Protein GmolCSP8 From the Oriental Fruit Moth, Grapholita molesta (Busck) (Lepidoptera: Tortricidae)” (Frontiers in Physiology, 2019)
pKd: −log10 of the molar value.

Legend:
Format in all cases: binding
GmolCSP8-V40A = GmolCSP8-V40A (Grapholita molesta, UniProt A0A0M4FML8, V55A); experiment: Titration of protein with fluorescent probe 1-NPN, mutant V40A
Experimental: (§1) To determine whether GmolCSP8 is involved in odorant binding, fluorescence competitive binding assays were performed ([Zhong et al., 2012]). The fluorescence spectra were recorded using a fluorescence spectrophotometer (F-4500, Hitachi, Tokyo, Japan) in a 1 cm light path fluorimeter quartz cuvette with 10 nm slits for excitation and 20 nm slits for emission. The selected chemicals are listed in Table 2, and included four sex pheromone components and 34 volatiles from different host plants (peach and pear trees) of G. molesta based on previous investigations ([Natale et al., 2004]; [Lu et al., 2012]; [Najar-Rodriguez et al., 2013b]). […] The fluorescent probe was excited at 337 nm and emission spectra were recorded from 370 to 550 nm. […] Dissociation constants (Kd) of protein to 1-NPN were calculated by non-linear regression, using GraphPad Prism 4.00 software (GraphPad Software Inc.). The inhibition constants (Ki) of the competitors were determined using the corresponding IC50 values (concentration of competitor that reduced the initial fluorescence intensity by half) based on the following equation: Ki = [IC50]/(1+[1-NPN]/K1-NPN), where [1-NPN] is the free concentration of 1-NPN and K1-NPN is the dissociation constant of the complex GmolCSP8/1-NPN. […]

GmolCSP8-L30A = GmolCSP8-L30A (Grapholita molesta, UniProt A0A0M4FML8, L45A); experiment: Titration of protein with fluorescent probe 1-NPN, mutant L30A
Experimental: as §1

GmolCSP8-T27A = GmolCSP8-T27A (Grapholita molesta, UniProt A0A0M4FML8, T42A); experiment: Titration of protein with fluorescent probe 1-NPN, mutant T27A
Experimental: as §1

GmolCSP8-L80A = GmolCSP8-L80A (Grapholita molesta, UniProt A0A0M4FML8, L95A); experiment: Titration of protein with fluorescent probe 1-NPN, mutant L80A
Experimental: as §1

rGmolCSP8 = rGmolCSP8 (Grapholita molesta, UniProt A0A0M4FML8); experiment: Titration of protein with fluorescent probe 1-NPN, wild-type; conditions: wild-type rGmolCSP8, 2 μM protein, pH 7.4; read-out: Kd (dissociation constant) of 1-NPN
Experimental: To determine whether GmolCSP8 is involved in odorant binding, fluorescence competitive binding assays were performed ([Zhong et al., 2012]). The fluorescence spectra were recorded using a fluorescence spectrophotometer (F-4500, Hitachi, Tokyo, Japan) in a 1 cm light path fluorimeter quartz cuvette with 10 nm slits for excitation and 20 nm slits for emission. The selected chemicals are listed in Table 2, and included four sex pheromone components and 34 volatiles from different host plants (peach and pear trees) of G. molesta based on previous investigations ([Natale et al., 2004]; [Lu et al., 2012]; [Najar-Rodriguez et al., 2013b]). […] The fluorescent probe was excited at 337 nm and emission spectra were recorded from 370 to 550 nm. […] Dissociation constants (Kd) of protein to 1-NPN were calculated by non-linear regression, using GraphPad Prism 4.00 software (GraphPad Software Inc.). The inhibition constants (Ki) of the competitors were determined using the corresponding IC50 values (concentration of competitor that reduced the initial fluorescence intensity by half) based on the following equation: Ki = [IC50]/(1+[1-NPN]/K1-NPN), where [1-NPN] is the free concentration of 1-NPN and K1-NPN is the dissociation constant of the complex GmolCSP8/1-NPN.
FIGURE 5 Binding curve and relative Scatchard plot of 1-NPN to rGmolCSP8. […] The calculated dissociation constant of rGmolCSP8 was 13.85 μM. […]

Sequence of GmolCSP8-T27A (A0A0M4FML8 entry or part of it T42A): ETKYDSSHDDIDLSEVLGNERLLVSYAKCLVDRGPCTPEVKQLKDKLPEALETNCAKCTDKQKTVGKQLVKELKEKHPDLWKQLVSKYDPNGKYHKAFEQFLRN
Sequence of rGmolCSP8 (A0A0M4FML8 entry or part of it): as the sequence (A0A0M4FML8 entry or part of it T42A) above, with A27T counted along it
Sequence of GmolCSP8-L30A (A0A0M4FML8 entry or part of it L45A): as the sequence (A0A0M4FML8 entry or part of it T42A) above, with A27T, L30A counted along it
Sequence of GmolCSP8-V40A (A0A0M4FML8 entry or part of it V55A): as the sequence (A0A0M4FML8 entry or part of it T42A) above, with A27T, V40A counted along it
Sequence of GmolCSP8-L80A (A0A0M4FML8 entry or part of it L95A): as the sequence (A0A0M4FML8 entry or part of it T42A) above, with A27T, L80A counted along it

Which results are given for `c1ccc(Nc2cccc3ccccc23)cc1` [1-NPN, N-phenyl-1-naphthylamine]?
pKd (GmolCSP8-V40A): 4.93; pKd (GmolCSP8-L30A): 4.84; pKd (GmolCSP8-T27A): 4.95; pKd (GmolCSP8-L80A): 4.93; pKd (rGmolCSP8): 4.86
